Experimental data from BindingDB's records for doi:10.1016/j.bmc.2004.11.045 (Yamanouchi Pharmaceutical, 2005).

Key:
Experiment in all cases: HIV-1 RT Assay
[1] = target: T1, Gag-Pol polyprotein [588-1127,Y768C]/[588-1147,Y768C] (Human immunodeficiency virus 1, UniProt P04585, Y768C)
T1 construct: 588-1127; 588-1147
Source text: (§1) The IC50 of reverse transcriptase is the concentration that inhibits 50% of recombinant HIV-1 RT RNA-directed DNA polymerase activity in vitro.

[2] = target: T2, Gag-Pol polyprotein [588-1027]/[588-1147] (Human immunodeficiency virus 1, UniProt P04585)
T2 construct: 588-1027; 588-1147
Source text: as §1

[3] = target: T3, Gag-Pol polyprotein [588-1027,K690N]/[588-1147,K690N] (Human immunodeficiency virus 1, UniProt P04585, K690N)
T3 construct: 588-1027; 588-1147
Source text: as §1

Compound	IC50 [1] [nM]	IC50 [2] [nM]	IC50 [3] [µM]	IC50 ([2]; pH 8.4, 37 °C) [nM]	IC50 ([3]; pH 8.4, 37 °C) [µM]	IC50 ([1]; pH 8.4, 37 °C) [nM]
CC(C)c1s/c(=N\S(=O)(=O)c2cc(Cl)ccc2C#N)n(C)c1Cl [5-Chloro-N-(4-chloro-5-isopropyl-3-methyl-1,3-thiazol-2(3H)-ylidene)-2-cyanobenzenesulfonamide]	91	9	3.7			
Cc1c(C(C)(C)C)s/c(=N\S(=O)(=O)c2ccc(O)cc2)n1C [N-(5-tert-Butyl-3,4-dimethyl-1,3-thiazol-2(3H)-ylidene)-4-hydroxybenzenesulfonamide]	> 10000	> 10000	> 10			
Cc1c(C(C)C)s/c(=N\S(=O)(=O)c2cc(C#N)ccc2C#N)n1C [thiazolidenebenzenesulfonamide deriv.]	470	12	4.1			
COc1cccc(S(=O)(=O)/N=c2\sc(C(C)(C)C)c(C)n2C)c1 [N-[(2Z)-5-tert-butyl-3,4-dimethyl-2,3-dihydro-1,3-thiazol-2-ylidene]-3-methoxybenzene-1-sulfonamide]		8800	> 50			
Cc1c(C(C)C)s/c(=N\S(=O)(=O)c2cc(Br)ccc2C#N)n1C [5-Bromo-2-cyano-N-(5-isopropyl-3,4-dimethyl-1,3-thiazol-2(3H)-ylidene)benzenesulfonamide]	260	18	3.9			
Cc1c(C(C)(C)C)s/c(=N\S(=O)(=O)c2cc(Cl)ccc2NS(C)(=O)=O)n1C [N-[(2Z)-5-tert-butyl-3,4-dimethyl-2,3-dihydro-1,3-thiazol-2-ylidene]-5-chloro-2-methanesulfonamidobenzene-1-sulfonamide]	> 50000	> 50000	> 50			
Cc1c(C(C)C)s/c(=N\S(=O)(=O)c2cc(F)ccc2C#N)n1C [2-cyano-N-[(2Z)-3,4-dimethyl-5-(propan-2-yl)-2,3-dihydro-1,3-thiazol-2-ylidene]-5-fluorobenzene-1-sulfonamide]	2100	92	> 10			
COc1ccccc1S(=O)(=O)/N=c1\sc(C(C)(C)C)c(C)n1C [N-(5-tert-Butyl-3,4-dimethyl-1,3-thiazol-2(3H)-ylidene)-2-methoxybenzenesulfonamide]				50000	> 50	
CC(C)c1s/c(=N\S(=O)(=O)c2cc(Br)ccc2O)n(C)c1Cl [5-bromo-N-[(2Z)-4-chloro-3-methyl-5-(propan-2-yl)-2,3-dihydro-1,3-thiazol-2-ylidene]-2-hydroxybenzene-1-sulfonamide]	13	4.3	0.043			
Cc1c(C(C)(C)C)s/c(=N\S(=O)(=O)c2ccccc2Cl)n1C [N-[(2Z)-5-tert-butyl-3,4-dimethyl-2,3-dihydro-1,3-thiazol-2-ylidene]-2-chlorobenzene-1-sulfonamide]				> 10000	> 10	> 10000
Cc1c(C(C)(C)C)s/c(=N\S(=O)(=O)c2cc(Cl)ccc2N)n1C [2-amino-N-[(2Z)-5-tert-butyl-3,4-dimethyl-2,3-dihydro-1,3-thiazol-2-ylidene]-5-chlorobenzene-1-sulfonamide]	110	190	17			
Cc1c(C(C)(C)C)s/c(=N\S(=O)(=O)c2cc(Cl)ccc2C(N)=O)n1C [2-{[(5-tert-Butyl-3,4-dimethyl-1,3-thiazol-2(3H)-ylidene)amino]sulfonyl}-4-chlorobenzamide]	> 10000	> 10000	> 10			
CC(C)c1s/c(=N\S(=O)(=O)c2cc(C#N)ccc2C#N)n(C)c1Cl [N-(4-Chloro-5-isopropyl-3-methyl-1,3-thiazol-2(3H)-ylidene)-2,5-dicyanobenzenesulfonamide]	210	9.5	3			
Cc1c(C(C)(C)C)s/c(=N\S(=O)(=O)c2cc(Cl)ccc2[N+](=O)[O-])n1C [N-[(2Z)-5-tert-butyl-3,4-dimethyl-2,3-dihydro-1,3-thiazol-2-ylidene]-5-chloro-2-nitrobenzene-1-sulfonamide]		2400	> 50			
Cc1c(C(C)(C)C)s/c(=N\S(=O)(=O)c2cc(Cl)ccc2O)n1C [N-(5-tert-Butyl-3,4-dimethyl-1,3-thiazol-2(3H)-ylidene)-5-chloro-2-hydroxybenzenesulfonamide]	11	32	1.1			
Cc1c(C(C)(C)C)s/c(=N\S(=O)(=O)c2ccccc2O)n1C [N-[(2Z)-5-tert-butyl-3,4-dimethyl-2,3-dihydro-1,3-thiazol-2-ylidene]-2-hydroxybenzene-1-sulfonamide]	410	1600	30			
Cc1c(C(C)(C)C)s/c(=N\S(=O)(=O)c2cccc(Cl)c2O)n1C [N-[(2Z)-5-tert-butyl-3,4-dimethyl-2,3-dihydro-1,3-thiazol-2-ylidene]-3-chloro-2-hydroxybenzene-1-sulfonamide]		6300	> 50			
Cc1c(C(C)(C)C)s/c(=N\S(=O)(=O)c2cccc(Cl)c2)n1C [N-[(2Z)-5-tert-butyl-3,4-dimethyl-2,3-dihydro-1,3-thiazol-2-ylidene]-3-chlorobenzene-1-sulfonamide]				300	11	44
Cc1c(C(C)(C)C)s/c(=N\S(=O)(=O)c2cccc(O)c2)n1C [N-[(2Z)-5-tert-butyl-3,4-dimethyl-2,3-dihydro-1,3-thiazol-2-ylidene]-3-hydroxybenzene-1-sulfonamide]	14000	8800	> 50			
Cc1c(C(C)(C)C)s/c(=N\S(=O)(=O)c2ccccc2[N+](=O)[O-])n1C [N-[(2Z)-5-tert-butyl-3,4-dimethyl-2,3-dihydro-1,3-thiazol-2-ylidene]-2-nitrobenzene-1-sulfonamide]				> 50000	> 50	36000
Cc1c(C(C)(C)C)s/c(=N\S(=O)(=O)c2cc(Cl)ccc2C#N)n1C [N-(5-tert-Butyl-3,4-dimethyl-1,3-thiazol-2(3H)-ylidene)-5-chloro-2-cyanobenzenesulfonamide]	69	180	> 50			
Cc1c(C(C)(C)C)s/c(=N\S(=O)(=O)c2ccc([N+](=O)[O-])cc2)n1C [N-(5-tert-Butyl-3,4-dimethyl-1,3-thiazol-2(3H)-ylidene)-4-nitrobenzenesulfonamide]				> 10000	> 10	> 10000
Cc1c(C(C)C)s/c(=N\S(=O)(=O)c2cc(Cl)ccc2C#N)n1C [5-chloro-2-cyano-N-[(2Z)-3,4-dimethyl-5-(propan-2-yl)-2,3-dihydro-1,3-thiazol-2-ylidene]benzene-1-sulfonamide]	200	11	5.9			
CC(=O)Nc1ccc(Cl)cc1S(=O)(=O)/N=c1\sc(C(C)(C)C)c(C)n1C [N-(2-{[(5-tert-Butyl-3,4-dimethyl-1,3-thiazol-2(3H)-ylidene)amino]sulfonyl}-4-chlorophenyl)acetamide]	> 50000	> 50000	> 50			
COc1ccc(S(=O)(=O)/N=c2\sc(C(C)(C)C)c(C)n2C)cc1 [N-(5-tert-Butyl-3,4-dimethyl-1,3-thiazol-2(3H)-ylidene)-4-methoxybenzenesulfonamide]	> 10000	> 10000	> 10			
COC(=O)c1ccc(Cl)cc1S(=O)(=O)/N=c1\sc(C(C)(C)C)c(C)n1C [methyl 2-{[(2Z)-5-tert-butyl-3,4-dimethyl-2,3-dihydro-1,3-thiazol-2-ylidene]sulfamoyl}-4-chlorobenzoate]	10000	> 10000	> 10			
Cc1c(C(C)(C)C)s/c(=N\S(=O)(=O)c2ccc(Cl)cc2)n1C [N-(5-tert-Butyl-3,4-dimethyl-1,3-thiazol-2(3H)-ylidene)-4-chlorobenzenesulfonamide]				> 10000	> 10	> 10000
Cc1c(C(C)(C)C)s/c(=N\S(=O)(=O)c2ccccc2)n1C	5100	4900	> 50			
CC(C)c1s/c(=N\S(=O)(=O)c2cc(Cl)ccc2O)n(C)c1Cl [5-chloro-N-[(2Z)-4-chloro-3-methyl-5-(propan-2-yl)-2,3-dihydro-1,3-thiazol-2-ylidene]-2-hydroxybenzene-1-sulfonamide]	21	9.4	0.17			
